Laboratory results from PubChem BioAssay (NCI).
Where “and” joins values, the source holds several entries; their conditions need not be identical. Equal entries are not always repeated.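 Assay format: 96-well plates, 48-hour exposure. GI50 marks 50% less growth. TGI denotes the concentration required for complete inhibition of growth.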

What follows are molecules tested on A498 renal (assay: growth of human tumour cells (NCI), 48 h).
`CC[n+]1ccc2c(c1)C(=O)c1nccc3c1c-2nc1ccccc13` was tested, and the GI50 was 0.874 µM and the TGI was 6.13 µM.

These molecules were tested on UACC-62 melanoma (assay: growth of human tumour cells (NCI), 48 h).
`N#Cc1nc(-c2ccc(F)cc2)oc1S(=O)(=O)N1CCOCC1` gave a GI50 of 4.79 µM and a TGI of 17.6 µM.
For `Cc1c(Cl)cccc1Nc1ncccc1C(=O)O`, the GI50 was 48.3 µM and the TGI was over 100 µM.
For `COc1cc2c(c(O)c1C)C(=O)C(Cl)=CC2=O`, the TGI was 13.8 µM.
Work on `Fc1ccc(-c2nn(-c3ccccc3)cc2-c2nc3ccccc3o2)cc1` yielded a GI50 of 5.5 µM and a TGI of 19.6 µM.
Work on `CN=C1NC(=O)/C(=C/c2ccc3ncccc3c2)S1` yielded a GI50 of 8.31 µM and a TGI of over 25 µM.
`CN(C)CCNC(=O)c1cccc2nc3c(Cl)cccc3nc12` was tested, and the TGI was 3.87 µM.
`COc1ccc(CN2CCCC(C(=O)c3ccc(C(F)(F)F)cc3)C2)c(O)c1` (stereo not drawn) showed a GI50 of 12.4 µM and a TGI of 31.3 µM.
`O=S(=O)(O)C(O)/C=C/c1ccccc1` (stereo not drawn) showed a TGI of over 100 µM.
`OCCNCO` showed a TGI of over 100 µM.
`CC1=C2[C@@H](CC1)[C@]1(C)O[C@@](C(C)C)(C[C@H]1OC(=O)[C@H](C)O)[C@H]2OC(=O)/C=C/c1ccccc1` showed a GI50 of 12.2 µM and a TGI of 27.4 µM.
`O=C(Cc1ccc(/C=C/C(=O)c2ncc[nH]2)cc1)Nc1ccc(Cl)cc1` showed a GI50 of 3.94 µM and a TGI of 9.48 µM.
`Cc1c(C(=O)/C=C/c2cccc3ccccc23)[n+](=O)c2ccccc2n1[O-]` gave a TGI of 23.9 µM.
`COC(=O)c1c2c(c(C)[n+]([O-])c1C)C(=O)C=CC2=O` was tested, and the GI50 was 1.63 µM and the TGI was 3.21 µM.
For `C[C@@H]1Cc2c([nH]c3ccccc23)[C@@H](c2c(F)cc(/C=C/C(=O)O)cc2F)N1CC(C)(C)F`, the GI50 was 3.9 µM and the TGI was 17.3 µM.
`O=C1CCC(NC(=O)c2ccccc2)C(=O)N1` (stereo not drawn) showed a TGI of over 100 µM.
With `CC1(C)N=C(N)N=C(N)N1c1ccc(CCCCc2ccc(S(=O)(=O)F)cc2Cl)c(Cl)c1` the TGI was 46.9 µM.
`CN(C)c1ccc(/C=C2\C[N+](C)(C)C/C(=C\c3ccc(N(C)C)cc3)C2=O)cc1` was tested, and the TGI was 30.6 µM.
For `NS(=O)(=O)c1ccc(-n2nc(-c3ccc(Br)cc3)ccc2=O)cc1`, the GI50 was over 10 µM and the TGI was over 10 µM.
In the case of `Cn1cc(C2=C(c3ccc(OC[C@@H](O)CO)cc3)C(=O)NC2=O)c2ccccc21`, the GI50 is reported as over 25 µM and the TGI is reported as over 25 µM.
`CCOC(=O)c1cc(-c2ccc([N+](=O)[O-])cc2)n(-c2ccc(C(=O)O)c(O)c2)c1C` was tested, and the GI50 was 3.95 µM and the TGI was 15.4 µM.
`N#Cc1cnn2ccn(C3OC(COC(=O)c4ccccc4)C(OC(=O)c4ccccc4)C3OC(=O)c3ccccc3)c12` (stereo not drawn) gave a TGI of over 21.5 µM.
`CCOc1ccc2nc(NC(=O)/C(CC(=O)CC(C3=C(O)c4ccccc4CC3=O)c3ccccc3)=N\O)sc2c1` (stereo not drawn) showed a TGI of over 100 µM.
In the case of `CCN1CCN(c2nc(NCCNc3ccnc4cc(Cl)ccc34)c3ccccc3n2)CC1`, the GI50 is reported as 1.41 µM and the TGI is reported as 2.94 µM.
`CN(C)c1ccc2c(c1)oc(=O)c1ccccc12` gave a TGI of 30.4 µM.
`CC1=C[C@@H]2Cc3occc3C(C)(C)[C@@H]2CC1` was tested, and the TGI was over 10 µM.
`CC(=O)c1ccc(N(/C=C/C(=O)C(F)(F)F)CC(=O)c2ccc(Cl)c(Cl)c2)cc1` was tested, and the GI50 was 7.01 µM and the TGI was 19.8 µM.
With `O=c1c(Cl)c(Cl)cnn1-c1ccccc1` the TGI was 3.34 µM and 5.36 µM.
Molecule `COc1cccc(-c2nn(-c3ccccc3)cc2-c2ccnc(NCCCNS(=O)(=O)c3cccc(F)c3)c2)c1` has a GI50 of 4.65 µM and a TGI of over 100 µM.
`NC1(CCCCCCCCCCC(=O)O)CNCCNCCNCCNC1` showed a TGI of over 100 µM.
Work on `C#CC(C)(C)Oc1cc(O)c2c(=O)c3ccccc3n(C)c2c1` yielded a TGI of over 100 µM.
In the case of `CC[n+]1ccc2c(c1)C(=O)c1nccc3c1c-2nc1ccccc13`, the GI50 is reported as 0.763 µM and the TGI is reported as 2.52 µM.

Each molecule was assayed on SF-295 CNS (assay: growth of human tumour cells (NCI), 48 h).
`N#Cc1nc(-c2ccc(F)cc2)oc1S(=O)(=O)N1CCOCC1` gave a GI50 of 16.1 µM and a TGI of 30.6 µM.
For `Cc1c(Cl)cccc1Nc1ncccc1C(=O)O`, the GI50 was 16.7 µM and the TGI was 76.7 µM.
With `COc1cc2c(c(O)c1C)C(=O)C(Cl)=CC2=O` the TGI was 34.4 µM.
`Fc1ccc(-c2nn(-c3ccccc3)cc2-c2nc3ccccc3o2)cc1` gave a GI50 of 2.32 µM and a TGI of 8.3 µM.
`CN=C1NC(=O)/C(=C/c2ccc3ncccc3c2)S1` showed a GI50 of 7.97 µM and a TGI of over 25 µM.
`CN(C)CCNC(=O)c1cccc2nc3c(Cl)cccc3nc12` was tested, and the TGI was over 27.1 µM.
`COc1ccc(CN2CCCC(C(=O)c3ccc(C(F)(F)F)cc3)C2)c(O)c1` (stereo not drawn) was tested, and the GI50 was 16.8 µM and the TGI was 45.9 µM.
With `O=S(=O)(O)C(O)/C=C/c1ccccc1` (stereo not drawn) the TGI was over 100 µM.
With `OCCNCO` the TGI was over 100 µM.
`CC1=C2[C@@H](CC1)[C@]1(C)O[C@@](C(C)C)(C[C@H]1OC(=O)[C@H](C)O)[C@H]2OC(=O)/C=C/c1ccccc1` gave a GI50 of 11.5 µM and a TGI of 24.8 µM.
`O=C(Cc1ccc(/C=C/C(=O)c2ncc[nH]2)cc1)Nc1ccc(Cl)cc1` gave a GI50 of 3.33 µM and a TGI of 9.32 µM.
In the case of `Cc1c(C(=O)/C=C/c2cccc3ccccc23)[n+](=O)c2ccccc2n1[O-]`, the TGI is reported as 29.7 µM.
Molecule `COC(=O)c1c2c(c(C)[n+]([O-])c1C)C(=O)C=CC2=O` has a GI50 of 1.78 µM and a TGI of 3.34 µM.
`C[C@@H]1Cc2c([nH]c3ccccc23)[C@@H](c2c(F)cc(/C=C/C(=O)O)cc2F)N1CC(C)(C)F` gave a GI50 of 8.65 µM and a TGI of 22.6 µM.
`O=C1CCC(NC(=O)c2ccccc2)C(=O)N1` (stereo not drawn) was tested, and the TGI was over 100 µM.
`CC1(C)N=C(N)N=C(N)N1c1ccc(CCCCc2ccc(S(=O)(=O)F)cc2Cl)c(Cl)c1` was tested, and the TGI was 192 µM.
`CN(C)c1ccc(/C=C2\C[N+](C)(C)C/C(=C\c3ccc(N(C)C)cc3)C2=O)cc1` showed a TGI of over 100 µM.
In the case of `NS(=O)(=O)c1ccc(-n2nc(-c3ccc(Br)cc3)ccc2=O)cc1`, the GI50 is reported as over 10 µM and the TGI is reported as over 10 µM.
In the case of `Cn1cc(C2=C(c3ccc(OC[C@@H](O)CO)cc3)C(=O)NC2=O)c2ccccc21`, the GI50 is reported as over 25 µM and the TGI is reported as over 25 µM.
`CCOC(=O)c1cc(-c2ccc([N+](=O)[O-])cc2)n(-c2ccc(C(=O)O)c(O)c2)c1C` was tested, and the GI50 was 3.72 µM and the TGI was 19.6 µM.
In the case of `N#Cc1cnn2ccn(C3OC(COC(=O)c4ccccc4)C(OC(=O)c4ccccc4)C3OC(=O)c3ccccc3)c12` (stereo not drawn), the TGI is reported as over 21.5 µM.
For `CCOc1ccc2nc(NC(=O)/C(CC(=O)CC(C3=C(O)c4ccccc4CC3=O)c3ccccc3)=N\O)sc2c1` (stereo not drawn), the TGI was over 100 µM.
`CCN1CCN(c2nc(NCCNc3ccnc4cc(Cl)ccc34)c3ccccc3n2)CC1` was tested, and the GI50 was 1.33 µM and the TGI was 2.74 µM.
`CN(C)c1ccc2c(c1)oc(=O)c1ccccc12` showed a TGI of 48.2 µM.
`CC1=C[C@@H]2Cc3occc3C(C)(C)[C@@H]2CC1` showed a TGI of 34.1 µM.
Molecule `CC(=O)c1ccc(N(/C=C/C(=O)C(F)(F)F)CC(=O)c2ccc(Cl)c(Cl)c2)cc1` has a GI50 of 12.3 µM and a TGI of 26.2 µM.
For `O=c1c(Cl)c(Cl)cnn1-c1ccccc1`, the GI50 was 5.18 µM and 16 µM and the TGI was 9.7 µM and 32.3 µM.
For `COc1cccc(-c2nn(-c3ccccc3)cc2-c2ccnc(NCCCNS(=O)(=O)c3cccc(F)c3)c2)c1`, the GI50 was 2.94 µM and the TGI was over 100 µM.
In the case of `NC1(CCCCCCCCCCC(=O)O)CNCCNCCNCCNC1`, the TGI is reported as over 100 µM.
`C#CC(C)(C)Oc1cc(O)c2c(=O)c3ccccc3n(C)c2c1` was tested, and the TGI was over 100 µM.
In the case of `CC[n+]1ccc2c(c1)C(=O)c1nccc3c1c-2nc1ccccc13`, the GI50 is reported as 0.634 µM and the TGI is reported as 3.76 µM.

What follows are molecules tested on NCI-H522 lung (assay: growth of human tumour cells (NCI), 48 h).
`N#Cc1nc(-c2ccc(F)cc2)oc1S(=O)(=O)N1CCOCC1` was tested, and the GI50 was 0.675 µM and the TGI was 3.13 µM.
With `Cc1c(Cl)cccc1Nc1ncccc1C(=O)O` the GI50 was 81.2 µM and the TGI was over 100 µM.
Work on `COc1cc2c(c(O)c1C)C(=O)C(Cl)=CC2=O` yielded a TGI of 5.24 µM.
Molecule `Fc1ccc(-c2nn(-c3ccccc3)cc2-c2nc3ccccc3o2)cc1` has a GI50 of 3.62 µM and a TGI of 16.8 µM.
`CN=C1NC(=O)/C(=C/c2ccc3ncccc3c2)S1` showed a GI50 of 3.28 µM and a TGI of over 25 µM.
In the case of `CN(C)CCNC(=O)c1cccc2nc3c(Cl)cccc3nc12`, the TGI is reported as over 100 µM.
In the case of `COc1ccc(CN2CCCC(C(=O)c3ccc(C(F)(F)F)cc3)C2)c(O)c1` (stereo not drawn), the GI50 is reported as 19.3 µM and the TGI is reported as 42.2 µM.
For `O=S(=O)(O)C(O)/C=C/c1ccccc1` (stereo not drawn), the TGI was over 100 µM.
Work on `OCCNCO` yielded a TGI of over 100 µM.
In the case of `CC1=C2[C@@H](CC1)[C@]1(C)O[C@@](C(C)C)(C[C@H]1OC(=O)[C@H](C)O)[C@H]2OC(=O)/C=C/c1ccccc1`, the GI50 is reported as 13.3 µM and the TGI is reported as 29.1 µM.
`O=C(Cc1ccc(/C=C/C(=O)c2ncc[nH]2)cc1)Nc1ccc(Cl)cc1` gave a GI50 of 2.6 µM and a TGI of 7.23 µM.
Molecule `Cc1c(C(=O)/C=C/c2cccc3ccccc23)[n+](=O)c2ccccc2n1[O-]` has a TGI of 19.8 µM.
`COC(=O)c1c2c(c(C)[n+]([O-])c1C)C(=O)C=CC2=O` was tested, and the GI50 was 1.66 µM and the TGI was 3.67 µM.
